Assay results published in paper PMC5746119, “Pharmacologic characterization of SHR8443, a novel dual inhibitor of phosphatidylinositol 3-kinase and mammalian target of rapamycin” (Oncotarget, 2017).
Read-outs that look alike come from different tables or passages of the source.

Tests used:
[1] = tested on: A375/TR (trametinib-resistant) cells; experiment: Cell proliferation assay (SRB); assay type: cell-based, human; conditions: for resistance factor (RF): A375/TR versus parental A375
Experimental: (§1) The following human tumor cell lines were obtained from the American Type Culture Collection (Manassas, VA, USA): breast tumor cell lines, MDA-MB-231, MDA-MB-435, MDA-MB-468, BT-474 and MCF7; lung tumor cell lines, A549 and Calu-3; ovarian tumor cell lines, SK-OV-3 and OVCAR3; colon tumor cell lines, SW620 and COLO205; glioma cell line, U-87MG; prostate tumor cell line, PC-3; and melanoma cell line, A375. All cell lines were cultured according to instructions provided by the American Type Culture Collection. The ovarian tumor cell line A2780 was obtained from the National Cancer Institute (Bethesda, MD, USA) and cultured according to the instructions provided. The dabrafenib- and trametinib-resistant A375 cell lines, A375/DR and A375/TR, respectively, were established by culturing parental cells in medium containing gradually increasing concentrations of dabrafenib (0.1–5,000 nM) or trametinib (0.05–50 nM) over the course of 12 months. […] All the cells have been tested and authenticated by Genesky Biotechnologies. Inc. (Shanghai, China) using fluorescent amplified restriction fragment polymorphism (FAFLP) method.
(§2) Tumor cells were seeded in 96-well plates and treated with serial dilutions of drugs alone or as a combination of two drugs. After a 72-h incubation, cell proliferation was evaluated by sulforhodamine B (SRB; Sigma) assay. […] The CI value which defines the interaction between two drugs as synergistic (CI < 0.95), additive (CI = 0.95–1.05) or antagonistic (CI > 1.05), was determined on the basis of the median-effect principle using CalcuSyn software.

[2] = tested on: A375/DR (dabrafenib-resistant) cells; experiment: Cell proliferation assay (SRB); assay type: cell-based, human; conditions: for resistance factor (RF): A375/DR versus parental A375
Experimental: as §1, §2

mTOR = mTOR (Homo sapiens, UniProt P42345); experiment: mTOR kinase activity assay (K-LISA mTOR Activity Kit); assay type: biochemical; conditions: means ± SD (n = 3)
Experimental: (§3) PI3K enzyme-linked immunosorbent assays (ELISAs) were performed using the PI3Kinase Activity/Inhibitor Assay Kit (Millipore, Bedford, MA, USA) according to the manufacturer's instructions as described previously. mTOR kinase activity was assayed using the K-LISA mTOR Activity Kit (Calbiochem, Bedford, MA, USA) according to the manufacturer's instructions.

[3] = Tolerability (deaths, body weight) in xenograft-bearing mice; assay type: in vivo, Balb/cA-nude mice; conditions: xenograft-bearing mice during the course of treatment
Experimental: (§4) Female, 5–6-wk-old Balb/cA-nude mice were purchased from Shanghai Laboratory Animal Center, Chinese Academy of Sciences (Shanghai, China). […] Tumor volume was calculated as (length × width^2)/2.

[4] = tested on: MCF7 and MDA-MB-468 cells; experiment: Apoptosis by annexin V-FITC/PI staining and FACS; assay type: cell-based, human; conditions: 72 h
Experimental: (§5) Cells were harvested and fixed in ice-cold 70% ethanol at −20°C overnight. Fixed cells were then treated with 50 μg/mL of propidium iodide and RNase A at 37°C for 30 min. The cell cycle distribution was measured using a FACScan flow cytometer (BD Biosciences, San Jose, CA, USA) and analyzed with ModFit LT Mac V3.0 software. Apoptosis was measured using a FITC Annexin V Apoptosis Detection Kit (BD Biosciences) according to the manufacturer's instructions. Fluorescence was acquired with an Accuri C6 Plus instrument (BD Biosciences).

[5] = tested on: MCF7, MDA-MB-468, COLO205, and A549 cell lines; experiment: Cell cycle distribution by flow cytometry; assay type: cell-based, human; conditions: 24 h treatment
Experimental: as §5

[6] = tested on: panel of other protein kinases; experiment: Panel of other protein kinases; assay type: biochemical; conditions: 1000 nM; data not shown
PC-3 xenografts = experiment: Tumor xenograft growth inhibition; assay type: in vivo, Balb/cA-nude mice; conditions: 30 mg/kg oral daily, final treatment day
Experimental: as §4

U-87MG xenografts = experiment: Tumor xenograft growth inhibition; assay type: in vivo, Balb/cA-nude mice
Experimental: as §4

[7] = tested on: trastuzumab-resistant BT-474/trastuzumab xenografts; experiment: Tumor xenograft growth inhibition; assay type: in vivo, Balb/cA-nude mice
Experimental: as §4

[8] = tested on: KRAS mutant A549 xenografts; experiment: Tumor xenograft growth inhibition; assay type: in vivo, Balb/cA-nude mice; conditions: 15 mg/kg oral daily
Experimental: as §4

BT-474 xenografts = experiment: Tumor xenograft growth inhibition; assay type: in vivo, Balb/cA-nude mice
Experimental: as §4

[9] = tested on: panel of human tumor cell lines; experiment: Cell proliferation assay (SRB), panel of human tumor cell lines; assay type: cell-based; conditions: 72 h
Experimental: as §1, §2

PI3Kγ = PI3Kγ (Homo sapiens, UniProt P48736); experiment: PI3K ELISA (PI3Kinase Activity/Inhibitor Assay Kit); assay type: biochemical; conditions: PI3Kγ (p110γ); means ± SD (n = 3)
Chain of PI3Kγ (P48736 whole entry): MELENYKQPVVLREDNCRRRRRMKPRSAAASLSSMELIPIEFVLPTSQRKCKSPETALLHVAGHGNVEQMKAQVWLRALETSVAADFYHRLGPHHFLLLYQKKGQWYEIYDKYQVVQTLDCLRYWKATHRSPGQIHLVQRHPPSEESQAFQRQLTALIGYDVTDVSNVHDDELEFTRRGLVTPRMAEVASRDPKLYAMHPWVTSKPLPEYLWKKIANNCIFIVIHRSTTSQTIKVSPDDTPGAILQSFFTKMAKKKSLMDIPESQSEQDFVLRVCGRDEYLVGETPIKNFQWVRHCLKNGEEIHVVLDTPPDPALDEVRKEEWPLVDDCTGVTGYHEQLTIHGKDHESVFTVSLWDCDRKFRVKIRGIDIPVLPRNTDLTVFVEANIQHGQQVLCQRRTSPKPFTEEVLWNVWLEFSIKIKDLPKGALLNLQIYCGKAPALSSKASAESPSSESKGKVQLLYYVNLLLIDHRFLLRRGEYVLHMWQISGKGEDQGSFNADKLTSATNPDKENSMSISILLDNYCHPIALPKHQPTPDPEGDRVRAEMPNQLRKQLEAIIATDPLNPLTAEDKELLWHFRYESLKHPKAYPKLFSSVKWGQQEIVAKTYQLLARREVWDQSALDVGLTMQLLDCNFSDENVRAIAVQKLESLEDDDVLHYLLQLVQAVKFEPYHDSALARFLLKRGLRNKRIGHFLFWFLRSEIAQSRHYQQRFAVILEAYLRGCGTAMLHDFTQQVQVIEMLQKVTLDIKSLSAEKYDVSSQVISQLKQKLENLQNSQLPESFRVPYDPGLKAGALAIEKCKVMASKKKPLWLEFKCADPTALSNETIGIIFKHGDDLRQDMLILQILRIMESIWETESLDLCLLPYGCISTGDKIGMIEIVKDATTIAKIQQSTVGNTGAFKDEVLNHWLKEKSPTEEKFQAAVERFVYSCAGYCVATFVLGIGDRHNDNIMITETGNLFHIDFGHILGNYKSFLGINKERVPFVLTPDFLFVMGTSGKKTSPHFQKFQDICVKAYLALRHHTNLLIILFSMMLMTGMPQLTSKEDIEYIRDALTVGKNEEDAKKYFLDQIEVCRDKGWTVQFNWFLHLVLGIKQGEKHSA
Experimental: as §3

PI3Kδ = PI3Kδ (Homo sapiens, UniProt O00329); experiment: as above; assay type: biochemical; conditions: PI3Kδ (p110δ); means ± SD (n = 3)
Chain of PI3Kδ (O00329 whole entry): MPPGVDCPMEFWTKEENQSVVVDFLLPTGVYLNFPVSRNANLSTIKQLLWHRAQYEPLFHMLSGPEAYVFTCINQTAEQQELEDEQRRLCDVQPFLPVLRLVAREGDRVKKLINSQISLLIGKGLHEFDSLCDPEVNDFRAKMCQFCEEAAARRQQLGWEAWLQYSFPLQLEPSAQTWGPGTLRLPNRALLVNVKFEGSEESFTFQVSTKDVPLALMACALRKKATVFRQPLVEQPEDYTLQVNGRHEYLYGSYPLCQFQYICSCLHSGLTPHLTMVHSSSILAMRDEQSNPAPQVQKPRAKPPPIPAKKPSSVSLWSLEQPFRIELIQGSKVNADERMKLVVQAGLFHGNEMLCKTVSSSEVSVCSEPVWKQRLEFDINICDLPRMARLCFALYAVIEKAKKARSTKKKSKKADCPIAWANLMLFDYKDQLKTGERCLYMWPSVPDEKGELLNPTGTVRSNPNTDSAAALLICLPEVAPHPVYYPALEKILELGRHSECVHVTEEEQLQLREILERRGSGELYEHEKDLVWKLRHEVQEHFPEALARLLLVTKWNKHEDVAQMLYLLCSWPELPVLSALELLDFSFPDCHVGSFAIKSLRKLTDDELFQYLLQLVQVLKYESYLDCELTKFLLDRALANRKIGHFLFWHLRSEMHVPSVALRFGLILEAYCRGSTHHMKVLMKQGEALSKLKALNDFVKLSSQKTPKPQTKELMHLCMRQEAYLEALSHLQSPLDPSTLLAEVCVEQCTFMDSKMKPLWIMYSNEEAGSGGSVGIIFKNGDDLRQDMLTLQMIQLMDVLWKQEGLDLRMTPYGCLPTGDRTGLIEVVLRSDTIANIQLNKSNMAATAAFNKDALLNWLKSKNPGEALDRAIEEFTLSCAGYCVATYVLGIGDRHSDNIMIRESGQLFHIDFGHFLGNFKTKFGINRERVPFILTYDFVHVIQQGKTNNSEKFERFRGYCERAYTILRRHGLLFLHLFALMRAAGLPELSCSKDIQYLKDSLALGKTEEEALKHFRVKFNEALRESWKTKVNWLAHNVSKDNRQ
Chain of PI3Kδ (P27986 whole entry partner): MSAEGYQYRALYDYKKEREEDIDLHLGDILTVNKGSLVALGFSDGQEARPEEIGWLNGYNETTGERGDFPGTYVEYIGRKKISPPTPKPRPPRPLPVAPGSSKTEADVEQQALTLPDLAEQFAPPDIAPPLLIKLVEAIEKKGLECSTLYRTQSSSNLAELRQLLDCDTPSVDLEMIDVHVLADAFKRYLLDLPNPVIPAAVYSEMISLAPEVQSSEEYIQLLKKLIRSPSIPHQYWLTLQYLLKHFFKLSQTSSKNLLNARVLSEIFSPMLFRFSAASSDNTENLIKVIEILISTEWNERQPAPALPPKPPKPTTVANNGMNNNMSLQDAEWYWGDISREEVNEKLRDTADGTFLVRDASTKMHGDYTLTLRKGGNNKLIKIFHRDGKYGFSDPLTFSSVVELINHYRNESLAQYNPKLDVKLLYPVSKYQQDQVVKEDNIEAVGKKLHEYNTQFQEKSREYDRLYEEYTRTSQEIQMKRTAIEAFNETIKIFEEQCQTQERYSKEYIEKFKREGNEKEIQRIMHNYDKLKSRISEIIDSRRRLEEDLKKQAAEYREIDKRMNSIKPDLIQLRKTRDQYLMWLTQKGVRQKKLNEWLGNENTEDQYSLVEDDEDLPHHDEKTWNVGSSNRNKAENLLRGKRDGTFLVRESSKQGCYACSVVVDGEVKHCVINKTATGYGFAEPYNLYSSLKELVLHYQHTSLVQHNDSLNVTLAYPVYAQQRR
Experimental: as §3

PI3Kα = PI3Kα (Homo sapiens, UniProt P42336); experiment: as above; assay type: biochemical; conditions: PI3Kα (p110α); means ± SD (n = 3)
Chain of PI3Kα (P42336 whole entry): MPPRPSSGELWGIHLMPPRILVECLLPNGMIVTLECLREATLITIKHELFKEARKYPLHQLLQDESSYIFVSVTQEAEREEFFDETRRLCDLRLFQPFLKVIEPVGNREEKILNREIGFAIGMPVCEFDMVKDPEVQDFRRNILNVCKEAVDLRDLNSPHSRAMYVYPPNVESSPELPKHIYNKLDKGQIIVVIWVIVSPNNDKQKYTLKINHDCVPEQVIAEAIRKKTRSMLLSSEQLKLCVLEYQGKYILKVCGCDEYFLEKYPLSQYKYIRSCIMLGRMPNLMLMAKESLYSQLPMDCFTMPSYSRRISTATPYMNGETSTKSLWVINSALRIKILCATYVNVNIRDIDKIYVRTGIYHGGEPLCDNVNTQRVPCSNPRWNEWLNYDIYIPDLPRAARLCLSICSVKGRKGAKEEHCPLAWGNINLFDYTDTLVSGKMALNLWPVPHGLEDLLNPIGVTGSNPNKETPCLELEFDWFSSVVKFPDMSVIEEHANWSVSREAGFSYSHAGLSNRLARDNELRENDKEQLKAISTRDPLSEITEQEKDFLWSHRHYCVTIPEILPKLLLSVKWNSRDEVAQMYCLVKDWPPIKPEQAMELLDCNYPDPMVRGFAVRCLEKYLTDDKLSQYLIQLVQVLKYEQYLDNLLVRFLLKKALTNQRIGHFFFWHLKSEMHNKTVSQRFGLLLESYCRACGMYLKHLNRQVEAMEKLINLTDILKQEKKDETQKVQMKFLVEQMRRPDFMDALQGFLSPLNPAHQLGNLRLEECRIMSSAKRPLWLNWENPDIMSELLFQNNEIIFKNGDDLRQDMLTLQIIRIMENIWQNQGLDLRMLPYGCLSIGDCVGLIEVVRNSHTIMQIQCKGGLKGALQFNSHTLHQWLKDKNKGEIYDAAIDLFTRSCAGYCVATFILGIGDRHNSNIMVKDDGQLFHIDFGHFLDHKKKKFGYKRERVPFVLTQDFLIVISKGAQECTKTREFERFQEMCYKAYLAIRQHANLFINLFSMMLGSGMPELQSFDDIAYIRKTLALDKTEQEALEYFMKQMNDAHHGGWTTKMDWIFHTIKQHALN
Chain of PI3Kα (P27986 whole entry partner): as the sequence (P27986 whole entry partner) above
Experimental: as §3

PI3Kβ = PI3Kβ (Homo sapiens, UniProt P42338); experiment: as above; assay type: biochemical; conditions: PI3Kβ (p110β); means ± SD (n = 3)
Chain of PI3Kβ (P42338 whole entry): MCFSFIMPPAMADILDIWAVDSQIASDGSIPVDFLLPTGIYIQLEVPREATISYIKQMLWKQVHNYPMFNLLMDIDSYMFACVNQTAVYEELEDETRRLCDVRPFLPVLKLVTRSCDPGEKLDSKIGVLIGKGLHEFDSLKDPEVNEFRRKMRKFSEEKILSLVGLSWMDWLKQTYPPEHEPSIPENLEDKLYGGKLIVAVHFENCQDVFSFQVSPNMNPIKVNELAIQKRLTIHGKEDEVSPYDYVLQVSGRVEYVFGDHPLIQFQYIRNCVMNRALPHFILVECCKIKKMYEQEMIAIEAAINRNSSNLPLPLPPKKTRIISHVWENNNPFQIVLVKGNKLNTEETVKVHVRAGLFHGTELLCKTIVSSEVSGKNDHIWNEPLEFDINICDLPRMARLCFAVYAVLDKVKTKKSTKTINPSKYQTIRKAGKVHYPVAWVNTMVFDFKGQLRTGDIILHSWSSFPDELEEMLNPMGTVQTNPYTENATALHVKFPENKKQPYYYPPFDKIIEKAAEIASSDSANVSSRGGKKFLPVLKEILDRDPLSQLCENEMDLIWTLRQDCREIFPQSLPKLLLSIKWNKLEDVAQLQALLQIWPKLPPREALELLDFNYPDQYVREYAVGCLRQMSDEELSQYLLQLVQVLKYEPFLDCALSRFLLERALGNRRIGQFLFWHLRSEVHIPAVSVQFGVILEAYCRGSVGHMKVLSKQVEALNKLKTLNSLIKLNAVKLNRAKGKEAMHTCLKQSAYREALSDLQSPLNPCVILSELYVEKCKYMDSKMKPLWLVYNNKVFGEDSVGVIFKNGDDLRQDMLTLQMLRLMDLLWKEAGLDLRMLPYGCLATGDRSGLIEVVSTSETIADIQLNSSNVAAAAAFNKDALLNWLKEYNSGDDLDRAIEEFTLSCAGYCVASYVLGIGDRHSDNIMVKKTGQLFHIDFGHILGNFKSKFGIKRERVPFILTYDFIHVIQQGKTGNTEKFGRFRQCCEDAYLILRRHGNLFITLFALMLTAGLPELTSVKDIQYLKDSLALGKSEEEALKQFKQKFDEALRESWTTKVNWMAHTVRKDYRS
Chain of PI3Kβ (P27986 whole entry partner): as the sequence (P27986 whole entry partner) above
Experimental: as §3

[10] = Pharmacokinetic study in U-87MG tumor-bearing mice; assay type: in vivo, Balb/cA-nude mice; conditions: single oral dose 10 mg/kg; for Cmax: female, Balb/cA-nude, mouse
Experimental: as §4
Pharmacokinetic/pharmacodynamic studies were carried out as described previously. Mice bearing U-87MG tumors received a single oral dose of 10 mg/kg SHR8443 or vehicle, and tumor tissues and blood were collected at different times. Concentrations of SHR8443 in plasma and tissue were determined by HPLC/tandem mass spectrometry. Tumor samples were analyzed by Western blotting. Animal experiments were conducted in accordance with the Institutional Animal Care and Use Committee guidelines of Shanghai Institute of Materia Medica, Chinese Academy of Sciences.

[11] = tested on: PI3K/mTOR signaling (AKT, S6, ERK phosphorylation); experiment: Western blotting of PI3K/mTOR signaling in tumor cell lines; assay type: cell-based, human
Experimental: (§6) After drug treatment, cells were lysed in sodium dodecyl sulfate (SDS) sample buffer (100 mM Tris-HCl pH 6.8, 2% SDS, 20% glycerol, 1 mM dithiothreitol). Cell lysates containing equal amounts of protein were resolved by SDS-PAGE and transferred to polyvinylidene difluoride membranes. Blots were probed with primary antibodies, and then incubated with the appropriate secondary antibodies (Millipore). Immunoreactive bands were visualized using enhanced chemiluminescence reagents (Millipore).

A375 cells = experiment: Cell proliferation assay (SRB); assay type: cell-based; conditions: Homo sapiens, A-375, 72 h
Experimental: The following human tumor cell lines were obtained from the American Type Culture Collection (Manassas, VA, USA): breast tumor cell lines, MDA-MB-231, MDA-MB-435, MDA-MB-468, BT-474 and MCF7; lung tumor cell lines, A549 and Calu-3; ovarian tumor cell lines, SK-OV-3 and OVCAR3; colon tumor cell lines, SW620 and COLO205; glioma cell line, U-87MG; prostate tumor cell line, PC-3; and melanoma cell line, A375. All cell lines were cultured according to instructions provided by the American Type Culture Collection. The ovarian tumor cell line A2780 was obtained from the National Cancer Institute (Bethesda, MD, USA) and cultured according to the instructions provided. The dabrafenib- and trametinib-resistant A375 cell lines, A375/DR and A375/TR, respectively, were established by culturing parental cells in medium containing gradually increasing concentrations of dabrafenib (0.1–5,000 nM) or trametinib (0.05–50 nM) over the course of 12 months. […]
as §2

A549 cells = experiment: Autophagy, LC3 immunoblotting; assay type: cell-based, human; conditions: 48 h
Experimental: as §6

[12] = 30 mg/kg oral daily, final treatment day

## CC(=O)Nc1cccc(-n2c(=O)n(C3CC3)c(=O)c3c(Nc4ccc(I)cc4F)n(C)c(=O)c(C)c32)c1 [trametinib]
[1]
  resistance factor (RF): 39.8
[2]
  resistance factor (RF): 45.1

## CNC(=O)Nc1ccc(-c2ccc3ncc4c(c3c2)n(-c2cccc(C(F)(F)F)c2)c(=O)n4C)cn1 [SHR8443, 1-methyl-3-(5-(3-methyl-2-oxo-1-(3-(trifluoromethyl)phenyl)-2,3-dihydro-1H–imidazo [4,5-c]quinolin-8-yl)pyridin-2-yl) urea]
mTOR
  IC50: 7.8 ± 1.1 nM
[1]; Homo sapiens, A-375, A375/TR cells, 72 h, SRB assay
  IC50: 4.9 nM
[2]; Homo sapiens, A-375, A375/DR cells, 72 h, SRB assay
  IC50: 3.4 nM
[3]
  tolerability (drug-related deaths, body weight loss): well tolerated
[4]
  necrotic/apoptotic cell death: concentration-dependent increase
[5]
  cell cycle effect: concentration-dependent G1-phase cell-cycle arrest
[6]
  inhibitory activity against a panel of other protein kinases: little inhibitory activity
PC-3 xenografts
  tumor growth inhibition (TGI): 75%
U-87MG xenografts; 30 mg/kg
  tumor regression: one of six tumors
U-87MG xenografts; [12]
  tumor growth inhibition (TGI): 95%
[7]; 30 mg/kg oral daily
  tumor growth inhibition (TGI): 79%
[8]
  tumor growth inhibition (TGI): 86%
BT-474 xenografts; 30 mg/kg
  tumor regression: one of six tumors
BT-474 xenografts; [12]
  tumor growth inhibition (TGI): 87%
[9]; read-out: IC50 values, proliferation, range over all tested tumor cells
  IC50: 2.9 to 13.9 nM
[9]; read-out: average (mean) IC50, proliferation, all tested tumor cells
  IC50: 7.5 nM
[9]; read-out: mean IC50 in KRAS/BRAF mutant tumor cells
  IC50: 7.3 nM
PI3Kγ
  IC50: 0.2 ± 0.2 nM
PI3Kδ
  IC50: 0.7 ± 0.2 nM
PI3Kα
  IC50: 0.1 nM
PI3Kβ
  IC50: 15.8 ± 3.8 nM
[10]; plasma, read-out: Cmax in plasma
  Cmax: 735 ng/mL
[10]; tumor tissue, read-out: Cmax in tumor tissue
  Cmax: 181 ng/g
[10]
  time of Cmax (plasma and tumor tissue): 8 h
[11]; COLO205 (BRAF mutant), A549 and SW620 (KRAS mutant) cells, 3 h
  phosphorylation of AKT and S6: significantly inhibited
[11]; COLO205, A549, SW620 cells
  level of phosphorylated ERK (pERK): No change
[11]; MCF7, MDA-MB-468, BT-474 breast cancer cells, 3 h
  AKT and S6 phosphorylation: inhibited
[11]; MDA-MB-468 cells, 100 nM for 2 h then drug-free medium
  reversibility of inhibitory activity after removal from medium: reversible
[11]; U-87MG cells, 100 nM
  duration of inhibition of AKT, S6K and S6 phosphorylation: at least 48 h
A375 cells
  IC50: 4.1 nM
A549 cells
  LC3-II production (autophagy): increased the production of LC3-II in a concentration-dependent manner

## CC(C)(C)c1nc(-c2cccc(NS(=O)(=O)c3c(F)cccc3F)c2F)c(-c2ccnc(N)n2)s1 [dabrafenib]
[1]
  resistance factor (RF): 61.0
[2]
  resistance factor (RF): 839.2

## Cn1c(=O)n(-c2ccc(C(C)(C)C#N)cc2)c2c3cc(-c4cnc5ccccc5c4)ccc3ncc21 [BEZ235, reference compound]
[7]; 60 mg/kg oral daily
  tumor growth inhibition (TGI): 39%
